Tests used:
Assay type in all cases: physicochemical
[1] = Ink solution condition after a week (pot life); conditions: H10: ink of Example 28 with Compound H10 instead of H4
Experimental: (§1) Specifically, samples of a host compound and a dopant compound were blended in a weight ratio of 20:1 in a sample pot, to which a solvent and a viscosity control agent were added.
(§2) Table 5 and Table 6 each show a type of solvent, solid content (wt %), solubility (o: no insoluble matter visually observed, x: insoluble matter visually observed), viscosity and a solution condition after a week.

[2] = Solubility Evaluation 1: solubility of host compounds in toluene; conditions: host compounds
Experimental: Solubility Evaluation 1 was conducted by the following method.
A hundred mg of each compound was placed in a sample pot and the toluene as the solvent was added until the compound was dissolved. The solubility in the toluene was obtained from an amount of the added toluene.

[3] = Ink solubility, insoluble matter visually observed; conditions: H10: ink of Example 28 with Compound H10 instead of H4
Experimental: as §1, §2

Structure (SMILES): c1ccc(-c2ccccc2-c2ccc3c(-c4ccccc4)c4ccccc4c(-c4ccccc4)c3c2)cc1 [Compound H10]
- precipitation within a week / pot life (in words) [1]: precipitation was not observed after a week
- solubility in toluene [2]: 5 wt %
- insoluble matter in the ink (in words) [3]: no solid matters left undissolved

Source: patent US20080113101A1, “ORGANIC-ELECTROLUMINESCENCE-MATERIAL-CONTAINING SOLUTION, METHOD FOR FORMING THIN FILM OF ORGANIC ELECTROLUMINESCENCE MATERIAL, THIN FILM OF ORGANIC ELECTROLUMINESCENCE MATERIAL AND ORGANIC ELECTROLUMINESCENCE DEVICE” (Idemitsu Kosan Co., Ltd., priority 2006, published 2008)
